The source of these data is ChEMBL document CHEMBL1201862, “PubChem BioAssay data set” (2004).

One test concerns the target T1, Protein RecA (Mycobacterium tuberculosis, UniProt P9WHJ3).
T1 sequence (P9WHJ3 whole entry): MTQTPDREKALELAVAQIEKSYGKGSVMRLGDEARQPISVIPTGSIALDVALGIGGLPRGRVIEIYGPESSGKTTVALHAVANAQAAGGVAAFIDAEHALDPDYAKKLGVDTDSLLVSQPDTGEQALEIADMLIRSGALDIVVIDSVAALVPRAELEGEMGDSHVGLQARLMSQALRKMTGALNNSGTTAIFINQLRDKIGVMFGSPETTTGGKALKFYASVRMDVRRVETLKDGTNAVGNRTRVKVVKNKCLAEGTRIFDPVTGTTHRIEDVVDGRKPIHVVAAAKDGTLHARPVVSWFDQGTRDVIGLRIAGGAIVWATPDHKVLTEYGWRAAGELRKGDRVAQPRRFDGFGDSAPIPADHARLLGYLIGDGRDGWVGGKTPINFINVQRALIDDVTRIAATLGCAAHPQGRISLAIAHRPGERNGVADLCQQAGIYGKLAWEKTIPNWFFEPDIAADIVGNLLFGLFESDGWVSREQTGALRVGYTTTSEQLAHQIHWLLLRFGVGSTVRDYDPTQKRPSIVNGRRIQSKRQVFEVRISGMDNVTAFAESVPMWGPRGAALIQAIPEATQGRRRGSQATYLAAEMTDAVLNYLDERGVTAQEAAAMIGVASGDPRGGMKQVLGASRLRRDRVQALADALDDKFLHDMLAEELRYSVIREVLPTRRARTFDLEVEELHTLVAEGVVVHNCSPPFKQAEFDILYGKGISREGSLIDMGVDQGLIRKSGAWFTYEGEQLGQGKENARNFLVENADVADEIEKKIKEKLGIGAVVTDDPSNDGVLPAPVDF
The test can be described thus: Fluorescence Cell-Free Homogeneous Dose Retest to Identify Inhibitors of RecA-Intein Splicing Activity. [Related pubchem assays (depositor defined):AID2097, AID2223, AID489010, AID492950]. The test is classed as functional.

Test [1] has as its target T2, Apoptotic protease-activating factor 1 (Homo sapiens, UniProt O14727).
T2 sequence (O14727 whole entry): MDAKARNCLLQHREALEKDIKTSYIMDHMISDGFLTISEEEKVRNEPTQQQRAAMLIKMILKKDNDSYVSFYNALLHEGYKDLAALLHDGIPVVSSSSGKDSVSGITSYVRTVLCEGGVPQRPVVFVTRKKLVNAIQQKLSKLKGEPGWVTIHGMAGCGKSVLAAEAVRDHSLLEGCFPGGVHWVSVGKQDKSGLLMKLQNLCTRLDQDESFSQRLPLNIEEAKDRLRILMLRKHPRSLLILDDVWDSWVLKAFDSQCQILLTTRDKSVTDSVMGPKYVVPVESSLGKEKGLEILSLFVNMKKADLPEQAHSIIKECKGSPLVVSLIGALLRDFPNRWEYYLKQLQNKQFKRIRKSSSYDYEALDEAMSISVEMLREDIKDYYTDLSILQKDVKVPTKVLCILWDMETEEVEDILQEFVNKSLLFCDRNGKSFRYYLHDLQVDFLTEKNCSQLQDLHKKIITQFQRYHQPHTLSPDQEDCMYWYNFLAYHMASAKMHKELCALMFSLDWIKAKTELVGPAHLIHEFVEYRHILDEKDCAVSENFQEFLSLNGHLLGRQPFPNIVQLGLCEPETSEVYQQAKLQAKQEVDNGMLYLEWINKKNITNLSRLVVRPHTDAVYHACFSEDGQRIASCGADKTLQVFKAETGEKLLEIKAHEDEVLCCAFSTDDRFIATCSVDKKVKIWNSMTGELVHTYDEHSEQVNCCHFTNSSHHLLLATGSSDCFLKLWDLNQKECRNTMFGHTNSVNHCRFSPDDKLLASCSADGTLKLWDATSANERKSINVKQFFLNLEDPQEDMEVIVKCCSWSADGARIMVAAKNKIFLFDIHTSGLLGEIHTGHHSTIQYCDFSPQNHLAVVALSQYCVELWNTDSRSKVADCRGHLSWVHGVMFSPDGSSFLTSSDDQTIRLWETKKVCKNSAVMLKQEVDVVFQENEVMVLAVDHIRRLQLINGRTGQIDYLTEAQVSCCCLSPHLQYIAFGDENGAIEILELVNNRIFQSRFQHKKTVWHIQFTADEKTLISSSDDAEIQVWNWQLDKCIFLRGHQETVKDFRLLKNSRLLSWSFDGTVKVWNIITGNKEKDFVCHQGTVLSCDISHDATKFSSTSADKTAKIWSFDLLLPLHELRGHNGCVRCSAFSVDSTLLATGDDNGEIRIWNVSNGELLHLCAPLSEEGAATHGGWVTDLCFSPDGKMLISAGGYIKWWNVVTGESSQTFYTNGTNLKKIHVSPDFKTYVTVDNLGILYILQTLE
The test is classed as functional.

For the next test, the target named is Genome polyprotein (dengue virus type 2, UniProt P29990). The test can be described thus: Dengue-2 NS5 methyltransferase inhibitors, primary screen, biochemical, confirmation dose response (AID 588689). The format is functional.
The target in test [2] is T3, Tyrosyl-DNA phosphodiesterase 2 (Homo sapiens, UniProt O95551).
T3 sequence (O95551 whole entry): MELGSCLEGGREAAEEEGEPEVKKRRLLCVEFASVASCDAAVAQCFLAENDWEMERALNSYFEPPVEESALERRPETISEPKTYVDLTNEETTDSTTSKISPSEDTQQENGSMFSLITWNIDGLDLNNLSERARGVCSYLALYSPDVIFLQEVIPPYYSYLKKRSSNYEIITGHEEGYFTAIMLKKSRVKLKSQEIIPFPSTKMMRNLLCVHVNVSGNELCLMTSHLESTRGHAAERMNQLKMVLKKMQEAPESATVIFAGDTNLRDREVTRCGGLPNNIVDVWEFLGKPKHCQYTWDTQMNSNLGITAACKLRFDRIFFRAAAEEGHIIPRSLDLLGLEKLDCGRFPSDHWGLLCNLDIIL
Put plainly: human TDP2 enzyme inhibitors, dose response, biochemical, epi absorbance, IC50 (AID 743297).

Calls of active or inactive are those of the source.

Genome polyprotein, sequence (P29990 2492-3391 limits assumed): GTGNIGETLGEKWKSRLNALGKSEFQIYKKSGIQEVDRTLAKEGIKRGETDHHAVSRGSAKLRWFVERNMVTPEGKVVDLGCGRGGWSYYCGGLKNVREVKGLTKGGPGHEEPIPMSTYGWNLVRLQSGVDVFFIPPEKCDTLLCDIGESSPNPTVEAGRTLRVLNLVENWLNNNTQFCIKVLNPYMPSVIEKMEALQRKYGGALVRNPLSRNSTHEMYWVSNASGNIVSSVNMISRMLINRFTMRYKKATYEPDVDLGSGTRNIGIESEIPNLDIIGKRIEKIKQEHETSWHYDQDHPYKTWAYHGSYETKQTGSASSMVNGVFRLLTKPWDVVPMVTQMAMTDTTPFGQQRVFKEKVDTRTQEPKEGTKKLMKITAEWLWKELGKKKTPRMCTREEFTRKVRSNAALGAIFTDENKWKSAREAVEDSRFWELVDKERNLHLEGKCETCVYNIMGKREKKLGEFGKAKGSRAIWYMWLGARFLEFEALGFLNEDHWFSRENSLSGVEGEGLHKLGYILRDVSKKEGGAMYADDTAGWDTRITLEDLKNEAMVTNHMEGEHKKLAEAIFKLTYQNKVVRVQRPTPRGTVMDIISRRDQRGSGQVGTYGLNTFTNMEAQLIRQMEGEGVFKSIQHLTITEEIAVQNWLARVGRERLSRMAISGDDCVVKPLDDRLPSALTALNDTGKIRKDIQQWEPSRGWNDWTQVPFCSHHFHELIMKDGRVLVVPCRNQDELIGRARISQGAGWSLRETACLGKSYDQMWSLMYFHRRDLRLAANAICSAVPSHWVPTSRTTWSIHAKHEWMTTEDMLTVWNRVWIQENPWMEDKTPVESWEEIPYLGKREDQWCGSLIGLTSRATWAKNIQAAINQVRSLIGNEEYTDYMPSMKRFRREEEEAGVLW

A word on the EC50: it is the concentration at which the effect is half-maximal. For orientation: IC50 means the concentration that gives 50% inhibition. With `COC(CNC(=O)c1ccc2c3c(onc13)-c1ccccc1C2=O)OC`, the 50% effective concentration (EC50) on Protein RecA is 5.99 µM (active). Further, the IC50 is 25.2 µM (active) in test [1] and 4.67 µM (active) on Genome polyprotein.

As for `COC(=O)[C@@H]1[C@@H](C(=O)OC)C2(c3ccccc3-c3ccccc32)N(c2ccc(Cl)cc2)N1C#N`, the EC50 at Protein RecA is 5.38 µM (active).

Turning to `O=C(O)c1ccc(NC2=C/C(=N/S(=O)(=O)c3ccccc3)c3ccccc3C2=O)cc1`, the IC50 in test [1] is 3.15 µM (active); in test [2], 1.88 µM (active); on Genome polyprotein, 17.1 µM (active).

As for `COc1ccc(OC)c(Nc2cc3ccccc3c(O)n2)c1`, at Protein RecA, the EC50 is 1.34 µM (active). In addition, the half-maximal inhibitory concentration (IC50) in test [1] was 2.5 µM (active); in test [2], 24.9 µM (inactive).

Turning to `COc1cc(-c2ccc(Nc3ccccc3C(=O)O)c(OC)c2)ccc1Nc1ccccc1C(=O)O`, the values for the IC50 (in test [1]; at Genome polyprotein) were 26.7 µM (active) and 18.8 µM (active), respectively.

For the compound `Nc1ccc2c(c1)C(=O)C(=O)c1ccccc1-2`, the concentration giving a half-maximal response (EC50) at Protein RecA was 6.36 µM (active). Further, the concentration for half-maximal inhibition (IC50) in test [1] is 0.768 µM (active); in test [2], 1.34 µM (active).

`Cc1ccc2nc(/C(C#N)=C\c3ccc([N+](=O)[O-])o3)[nH]c2c1`: the EC50 on Protein RecA was 0.454 µM (active).
